How the values were obtained:
[1] = system: freshly cut yams, sweet potatoes and potatoes; experiment: NaHS solution fumigation of freshly cut yams, sweet potatoes and potatoes
Procedure: (§1) Aqueous NaHS solutions (0.25-3.5 mmol/L) could release H2S gas (10^−12˜10^−10 mol/L). H2S rapidly, reached to the highest levels within several minutes and maintained a constant concentration. […] The NaHS solution was renewed every 48 or 72 hours. The NaHS solution was placed in a sealed container separated by a partition board with pores on it. The fresh cut vegetables including Broccoli, Lettuce, Lotus Root, Yam, Pumpkin, Sweet Potato, Potato, etc, and the fresh cut fruits Apple, Pear, Kiwi Fruit, Tomato, Hami Melon, and Peach were placed above the board, while the NaHS solution was placed under the board. Therefore, the fresh cut vegetables and fruits were fumigated with H2S gas released from NaHS in the solution.
The control freshly cut yams, sweet potatoes and potatoes that were treated with water (0.0 mmol/L NaHS) underwent browning at 10˜12 hours, while the browning time of freshly cut yams, sweet potatoes and potatoes treated with 0.25-1.75 mmol/L NaHS solution was postponed by about 15-20 hours.

[2] = system: fruits, vegetables, meat, chicken and salmon; yeast and/or bacteria; experiment: Food preservation with 500 mg NaHS in closed container at room temperature (FIG. 10)
Procedure: Representative samples of foods shown include fruits, vegetables, meat, chicken and salmon. […] Foods and fruits were stored in closed containers. The containers were made of aluminum with a plastic lid that snugly fitted onto the container rim. […] Control group (Control) of foods and fruits were stored within the containers. The experimental group (Exp) of foods and fruits were placed in the same type of containers and 500 mg of NaHS was placed in a glass cup which was placed in one corner of the container of the Exp group. The containers were not sealed. Using a H2S gas detector capable of detecting 1 to 500 ppm of H2S, no H2S was detected outside the containers. The amount of gas within the Exp containers varied from 5-40 ppm during the course of exposure. […] Experiments were carried out at room temperature for the durations shown. […] There is small change in color, consistency, and of the same food group and there is no evidence of growth of yeast in the NaHS treated group. Strawberry 80. […] The fruit also lost its consistency and is discolored. […] Raspberry 82. Growth of yeast is seen by day 4 and is pronounced on day 6 (arrow 83) in the control group. The fruit also lost its consistency and is discolored. […] Blackberry 84. Growth of yeast is seen by day 4 which is pronounced by day 6 (arrow 85) in the control group. The fruit also lost its consistency and is discolored. […] Banana 86. Growth of yeast is seen by day 8 (arrow 87) in the control group. The fruit also lost its consistency and is discolored. […] Sprout 88. Growth of yeast and bacteria is seen by day 4 (arrow 89) in the control group. Sprout also lost its consistency and is discolored. […] Leek 90. The vegetable is discolored in the control group by day 3. […] Avocado 91. Avocado was either homogenized (top two rows) or cut into small 1×1 cm pieces (bottom two rows) and stored in the containers. […] Mushroom 92. Mushroom is discolored in the control group. […] Cantaloupe 93. Growth of yeast is seen by day 3 and is severe on day 4 (arrows 94) in the control group. The fruit also lost its consistency and is discolored. […] Red meat 95 (top), Chicken 96 (middle) and Salmon 97 (Bottom). The control container developed a foul smell on day 3 which was pronounced on day 4. Larvae developed on day 3 in the control group and flies were found on day 4 in the control group. […] Agar plate cultures, 98. Samples from each fruit were diluted in phosphate buffered saline, pH 7.4. From each sample, 20 microliters was streaked on agar plates and plates were maintained either at room temperature or at 37° C. Samples from control group yielded bacteria or yeast only from control group. To directly test growth of these bacteria and yeast in presence of NaHS, samples of bacteria and yeast were streaked on agar plates and then stored without or with NaHS. 50 mg of NaHS was placed in an aluminum chamber and these were inserted on both sides of the Exp Petri dishes. Petri dishes were placed at room temperature or at 37° C. Colonies of bacteria and yeast were evident in the control group on day 1 and coalesced by day 3 as shown in the representative cultures 98. […] No growth was found for up to 2 months following initiation of cultures.

[3] = system: freshly cut pears and peaches; experiment: NaHS solution fumigation of freshly cut pears and peaches
Procedure: as §1
The control of freshly cut pears and peaches that were treated with water (0.0 mml/L NaHS), lost their edibility on day 2, while the shelf life of freshly cut pear and peach treated with 0.5 mmol/L-2.0 mmol/L NaHS solution was prolonged by 1-2 days. […] The control freshly cut pears and peaches treated with 0.0 mmol/L NaHS solution underwent rot process (due to physiological senescence and microbe infection) in 2.5 days, and the moldy rate reached 100% in 4 days.

[4] = system: freshly cut Kiwi fruits; experiment: NaHS solution fumigation of freshly cut Kiwi fruits
Procedure: as §1
The control freshly cut Kiwi fruits that were treated with water (0.0 mmol/L NaHS) lost their color and their edibility completely on day 4, while the shelf life of freshly cut Kiwi fruits treated with 0.25 mmol/L-1.75 mmol/L NaHS solution was prolonged by 2-3 days. […] The control freshly cut Kiwi fruits treated with 0.0 mmol/L NaHS solution underwent rot process in 5 days, and the rot rate reached 100% in 7 days.

[5] = system: bacteria and yeast; experiment: Agar plate cultures stored with 50 mg NaHS (FIG. 10, 98); type: cell-based
Procedure: Representative samples of foods shown include fruits, vegetables, meat, chicken and salmon. […] Foods and fruits were stored in closed containers. The containers were made of aluminum with a plastic lid that snugly fitted onto the container rim. […] Control group (Control) of foods and fruits were stored within the containers. The experimental group (Exp) of foods and fruits were placed in the same type of containers and 500 mg of NaHS was placed in a glass cup which was placed in one corner of the container of the Exp group. The containers were not sealed. Using a H2S gas detector capable of detecting 1 to 500 ppm of H2S, no H2S was detected outside the containers. The amount of gas within the Exp containers varied from 5-40 ppm during the course of exposure. […] Experiments were carried out at room temperature for the durations shown. […] There is small change in color, consistency, and of the same food group and there is no evidence of growth of yeast in the NaHS treated group. Strawberry 80. […] The fruit also lost its consistency and is discolored. […] Raspberry 82. Growth of yeast is seen by day 4 and is pronounced on day 6 (arrow 83) in the control group. The fruit also lost its consistency and is discolored. […] Blackberry 84. Growth of yeast is seen by day 4 which is pronounced by day 6 (arrow 85) in the control group. The fruit also lost its consistency and is discolored. […] Banana 86. […]

[6] = system: freshly cut chips of lettuce and lotus roots; experiment: NaHS solution fumigation of freshly cut chips of lettuce and lotus roots
Procedure: as §1
The control freshly cut chips of lettuce and lotus roots that were treated with water (0.0 mmol/L NaHS) lost their water and edibility after 15-24 hours, while the freshness of freshly cut chips of lettuce and lotus roots treated with 0.1 mmol/L-1.0 mmol/L NaHS solution was prolonged by 12-18 hours.

[7] = system: Mollusks, bees, grasshopper, drosophila, butterflies, and flies; details: in vivo
Source text: First, it can be used in a closed space for the growth of crop and to protect the crop by its insecticidal, fungicidal, rodenticidal, pediculicidal, and biocidal actions.

## S [NaHS, sodium hydrosulfide]
[1]; 0.25-1.75 mmol/L NaHS, control browning at 10˜12 hours
  browning time postponed by: 15 to 20 h
[1]; 1.0-1.5 mmol/L NaHS (most optimal)
  browning time postponed by: 16 to 20 h
[2]; 500 mg NaHS, H2S 5-40 ppm in container, room temperature
  food spoilage and growth of mold and/or bacteria: prevents food spoilage and growth of mold and/or bacteria
[2]; Avocado homogenized or cut pieces, day 3
  discoloration: maintained nearly the same color as that on day 1
[2]; Banana, day 8
  yeast growth, loss of consistency, discoloration: These changes are not seen in the Exp group
[2]; Blackberry, day 6
  yeast growth, loss of consistency, discoloration: These changes are not seen in the Exp group
[2]; Cantaloupe, day 4
  yeast growth, loss of consistency, discoloration: These changes are not seen in the Exp group
[2]; Leek, day 3
  discoloration: These changes are not seen in the Exp group
[2]; Mushroom
  discoloration: These changes are less severe in the Exp group
[2]; Raspberry, day 6
  yeast growth, loss of consistency, discoloration: These changes are not seen in the Exp group
[2]; Red meat, Chicken and Salmon, day 4
  discoloration, foul smell, larvae and flies: Meat discolored in the Exp group on day 4 but there was no evidence of foul smell or flies
[2]; Sprout, day 4
  growth of yeast and bacteria, loss of consistency, discoloration: These changes are not seen in the Exp group
[2]; Strawberry, day 4
  yeast growth, loss of consistency, discoloration: These changes are not seen in the Exp group
[3]; 0.5 mmol/L-2.0 mmol/L NaHS, control lost edibility on day 2
  shelf life prolonged by: 1 to 2 days
[3]; 1.5 mmol/L NaHS (best)
  shelf life prolonged by: 2 days
[3]; 1.5-2.0 mmol/L NaHS
  day until which micro-organisms did not appear: 5 days
[3]; 1.5-2.0 mmol/L NaHS, after 10 days, control 100% in 4 days
  moldy rate: 80%
[4]; 0.25 mmol/L-1.75 mmol/L NaHS, control lost edibility on day 4
  shelf life prolonged by: 2 to 3 days
[4]; 1.5 mmol/L NaHS (best)
  shelf life prolonged by: 2 days
[4]; 1.5 mmol/L NaHS, control rot rate 100% in 7 days
  day until which micro-organisms did not appear: 10 days
[5]
  time without growth following initiation of cultures: up to 2 months
[5]; room temperature or 37° C., day 1-3
  colonies of bacteria and yeast on agar plates: no growth was evident
[6]; 0.1 mmol/L-1.0 mmol/L NaHS, control lost water and edibility after 15-24 hours
  freshness prolonged by: 12 to 18 h
[6]; 0.8 mmol/L-1.0 mmol/L NaHS (best)
  freshness prolonged by: 18 h
[7]
  death of pests: die within seconds

— patent US20140342065A1 (priority 2012, published 2014)
